Laboratory results from US20250296959A1, “B7-H3 TARGETING PEPTIDES AND CONSTRUCTS THEREOF” (Mariana Oncology Inc., priority 2024, published 2025).
Starred links: 1 amine or outer side, 2 acyl side, 3 side chain; linkers in the order of their positions; H or OH if unused. Positions of bridges follow the written chain, without caps; N, C: chain ends. Non-standard residues stand in square brackets, D forms with d. Residues, ends and D or L forms follow the SMILES beside them. Groups on a side chain read outwards from the residue. *: point of attachment. Ala(piperidin-4-yl) = O=C([C@H](CC1CCN([*:3])CC1)N[*:1])[*:2]; DOTA = O=C(O)CN1CCN(CC(=O)O)CCN(CC(=O)*)CCN(CC(=O)O)CC1; Phe(4-NHCONH2) = NC(=O)Nc1ccc(C[C@H](N)C(=O)O)cc1; Phe(4-COOH) = N[C@@H](Cc1ccc(C(=O)O)cc1)C(=O)O; Trp(5-F) = N[C@@H](Cc1c[nH]c2ccc(F)cc12)C(=O)O; X1 = C[C@@H](c1ccccc1)[C@H](N[*:1])C(=O)[*:2]; Trp(1-Me) = Cn1cc(C[C@H](N)C(=O)O)c2ccccc21; PEG8 = NCCOCCOCCOCCOCCOCCOCCOCCOCCC(=O)O; Ala(4-THP) = N[C@@H](CC1CCOCC1)C(=O)O; Val(3-OH) = CC(C)(O)[C@H](N)C(=O)O; pGlu = O=C1CC[C@@H](C(=O)O)N1; Tle = CC(C)(C)[C@H](N)C(=O)O; hLeu = CC(C)CC[C@H](N)C(=O)O; Nle = CCCC[C@H](N)C(=O)O; Sar = CNCC(=O)O

These compounds were tested against T1, human 4lg B7-H3 (Homo sapiens, UniProt Q5ZPR3) (assay: Affinity determination by surface plasmon resonance (SPR) to 4Ig B7-H3). Conditions: SPR KD—25° C., 4Ig B7-H3; 25° C. flow cell temperature.
T1 sequence (Q5ZPR3 29-534): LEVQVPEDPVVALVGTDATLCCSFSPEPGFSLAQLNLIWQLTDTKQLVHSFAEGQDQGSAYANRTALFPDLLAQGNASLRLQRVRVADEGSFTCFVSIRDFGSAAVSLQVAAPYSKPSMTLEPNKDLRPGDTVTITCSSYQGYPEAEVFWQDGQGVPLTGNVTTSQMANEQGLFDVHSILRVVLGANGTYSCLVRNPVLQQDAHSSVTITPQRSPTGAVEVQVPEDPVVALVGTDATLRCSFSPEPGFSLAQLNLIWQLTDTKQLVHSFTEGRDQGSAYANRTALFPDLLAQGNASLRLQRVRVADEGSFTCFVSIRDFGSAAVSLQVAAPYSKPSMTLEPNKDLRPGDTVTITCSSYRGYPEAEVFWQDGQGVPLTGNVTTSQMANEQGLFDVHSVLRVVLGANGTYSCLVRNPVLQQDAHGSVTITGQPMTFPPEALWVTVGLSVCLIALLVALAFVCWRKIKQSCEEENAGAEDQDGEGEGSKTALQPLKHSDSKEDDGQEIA

| Structure (SMILES) | Kd [nM] |
| --- | --- |
| CC(=O)N[C@@H](CC(C)C)C(=O)N[C@@H](Cc1ccc(O)cc1)C(=O)N[C@H]1CSSC[C@@H](C(=O)N[C@@H](Cc2c[nH]c3ccccc23)C(=O)N[C@@H](Cc2ccccc2)C(=O)N[C@H](C(=O)N[C@H](CCCCNC(=O)CN2CCN(CC(=O)O)CCN(CC(=O)O)CCN(CC(=O)O)CC2)C(N)=O)[C@@H](C)O)NC(=O)[C@H](Cc2ccc(O)cc2)NC(=O)[C@H](C(C)C)NC(=O)[C@H](CC(=O)O)NC(=O)[C@H](Cc2ccc(O)cc2)NC(=O)[C@H](CCCCN)NC(=O)CNC(=O)[C@H](C(C)C)NC1=O [compound 56, Ac-Leu-Y-C-V-G-K-Y-D-V-Y-C-W-F-Thr-dLys(DOTA)-CONH2] (Ac-LYCVGKYDVYCWFT[dK](DOTA)-NH2; disulfide 3-11) | 10 to 100 |
| CCCC[C@@H]1NC(=O)[C@H](C(C)C)NC(=O)[C@H](CC(=O)O)NC(=O)[C@H](Cc2ccc(C(=O)O)cc2)NC(=O)[C@H](CCCCN)NC(=O)CNC(=O)[C@H](C(C)C)NC(=O)[C@@H](NC(=O)[C@H](Cc2ccc(O)cc2)NC(=O)[C@H](CCC(C)C)NC(=O)CCOCCOCCOCCOCCOCCOCCOCCOCCNC(=O)CN2CCN(CC(=O)O)CCN(CC(=O)O)CCN(CC(=O)O)CC2)CSSC[C@@H](C(=O)N[C@@H](Cc2c[nH]c3ccc(F)cc23)C(=O)N[C@@H](Cc2ccccc2)C(=O)N2CCC[C@H]2C(N)=O)NC1=O [compound 293, DOTA-PEG8-hLeu-Y-C-V-G-K-4COOHPhe-D-V-Nle-C-5FW-F-Pro-CONH2] ({DOTA-PEG8}-[hLeu]YCVGK[Phe(4-COOH)]DV[Nle]C[Trp(5-F)]FP-NH2; disulfide 3-11) | 10 to 100 |
| CC(=O)N[C@@H](CCC(C)C)C(=O)N[C@@H](Cc1ccc(O)cc1)C(=O)N[C@H]1CSSC[C@@H](C(=O)N[C@@H](Cc2cn(C)c3ccccc23)C(=O)N[C@@H](Cc2ccccc2)C(=O)N[C@H](C(=O)N[C@H](CCCCNC(=O)CN2CCN(CC(=O)O)CCN(CC(=O)O)CCN(CC(=O)O)CC2)C(N)=O)[C@@H](C)O)NC(=O)[C@H](Cc2ccc(O)cc2)NC(=O)[C@H](C(C)C)NC(=O)[C@H](CC(=O)O)NC(=O)[C@H](Cc2ccc(O)cc2)NC(=O)[C@H](CCCCN)NC(=O)CNC(=O)[C@H](C(C)C)NC1=O [compound 150, Ac-hLeu-Y-C-V-G-K-Y-D-V-Y-C-Trp(Me)-F-Thr-dLys(DOTA)-CONH2] (Ac-[hLeu]YCVGKYDVYC[Trp(1-Me)]FT[dK](DOTA)-NH2; disulfide 3-11) | < 1 |
| CCCC[C@H](NC(C)=O)C(=O)N[C@@H](Cc1ccc(O)cc1)C(=O)N[C@H]1CSSC[C@@H](C(=O)N[C@@H](Cc2c[nH]c3ccccc23)C(=O)N[C@@H](Cc2ccccc2)C(N)=O)NC(=O)[C@H](Cc2ccc(O)cc2)NC(=O)[C@H](C(C)C)NC(=O)[C@H](CC(=O)O)NC(=O)[C@H](Cc2ccc(O)cc2)NC(=O)[C@H](CCCCN)NC(=O)CN(C)C(=O)[C@H](C(C)C)NC1=O [compound 26, Ac-Nle-Y-C-V-Sar-K-Y-D-V-Y-C-W-F-CONH2] (Ac-[Nle]YCV[Sar]KYDVYCWF-NH2; disulfide 3-11) | 10 to 100 |

Same assay, conditions: SPR KD—37° C., 4Ig B7-H3; 37° C. flow cell temperature

| Structure (SMILES) | Kd [nM] |
| --- | --- |
| CC(C)CC[C@H](NC(=O)[C@@H]1CCC(=O)N1)C(=O)N[C@@H](Cc1ccc(O)cc1)C(=O)N[C@H]1CSSC[C@@H](C(=O)N[C@@H](Cc2c[nH]c3ccc(F)cc23)C(=O)N[C@H](C(=O)N[C@H](C(=O)N[C@H](CCCCNC(=O)[C@H](CCC(=O)O)NC(=O)CN2CCN(CC(=O)O)CCN(CC(=O)O)CCN(CC(=O)O)CC2)C(=O)O)C(C)(C)O)[C@@H](C)c2ccccc2)NC(=O)[C@H](Cc2ccc(NC(N)=O)cc2)NC(=O)[C@H](C(C)C)NC(=O)[C@H](CC(=O)O)NC(=O)[C@H](CC2CCOCC2)NC(=O)[C@H](CC2CCNCC2)NC(=O)CNC(=O)[C@H](C(C)(C)C)NC1=O [compound 505, Pyroglutamate-hLeu-Y-C-Tbg-G-PipAla-ThpA-D-V-Aph(Cbm)-C-5FW-[(2S, 3S)beta-Me-Phe]-hydroxyVal-dLys(Glu-DOTA)-COOH] ([pGlu][hLeu]YC[Tle]G[Ala(piperidin-4-yl)][Ala(4-THP)]DV[Phe(4-NHCONH2)]C[Trp(5-F)][X1][Val(3-OH)][dK]([Glu-DOTA])-OH; disulfide 4-12) | < 1 |
| CCCC[C@H](NC(C)=O)C(=O)N[C@@H](Cc1ccc(O)cc1)C(=O)N[C@H]1CSSC[C@@H](C(=O)N[C@@H](Cc2c[nH]c3ccccc23)C(=O)N[C@@H](Cc2ccccc2)C(N)=O)NC(=O)[C@H](Cc2ccc(O)cc2)NC(=O)[C@H](C(C)C)NC(=O)[C@H](CC(=O)O)NC(=O)[C@H](Cc2ccc(O)cc2)NC(=O)[C@H](CCCCN)NC(=O)CN(C)C(=O)[C@H](C(C)C)NC1=O [compound 26, Ac-Nle-Y-C-V-Sar-K-Y-D-V-Y-C-W-F-CONH2] (Ac-[Nle]YCV[Sar]KYDVYCWF-NH2; disulfide 3-11) | 10 to 100 |
